Two compounds from paper PMC6364417, “Kinase inhibitor library screening identifies synergistic drug combinations effective in sensitive and resistant melanoma cells” (Journal of Experimental & Clinical Cancer Research : CR, 2019) can be followed below.

Holding throughout (experiment): Kinase inhibitor library screening, PrestoBlue cell viability, 1 or 10 μM, 72 h
The subject of data set [1] is 501Mel-XP cells (Vemurafenib-resistant). The settings on record: 501Mel XP, in %.
Data set [2] relates to A375-GP cells (Dabrafenib-resistant). The settings on record: A375 GP, in %.
In a further data set the test system is IGR37 cells (parental). The settings on record: IGR37 Parental, in %.
Data set [3] relates to A375-XP cells (Vemurafenib-resistant). The settings on record: A375 XP, in %.
A further data set deals with A375 cells (parental). The conditions noted are these: A375 Parental, in %.
The subject of data set [4] is IGR37-GP cells (Dabrafenib-resistant). The settings on record: IGR37 GP.
Data set [5] concerns IGR37-XP cells (Vemurafenib-resistant). The conditions noted are these: IGR37 XP.
The next data set has as its system 501Mel cells (parental). The conditions noted are these: 501Mel Parental, in %. The gist of the method: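 Each compound was applied to parental melanoma cells and to derivatives made resistant to Vemurafenib or Dabrafenib. After treatment, viability was read with PrestoBlue on a plate reader and expressed as % of untreated cells, with each line run at least in duplicate.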

For data set [6], the system named is 501Mel-GP cells (Dabrafenib-resistant). The settings on record: 501Mel GP, in %.

Take `C#Cc1cccc(Nc2ncnc3cc(OCCOC)c(OCCO)cc23)c1` [Desmethyl Erlotinib (CP-473420)]: the “cell viability, 501Mel XP, 1μΜ” value in data set [1] (1μΜ, 72 h) is reported as 100.0. Besides, in [1] (10μΜ, 72 h), the “cell viability, 501Mel XP, 10μΜ” value amounted to 41.7. The “cell viability, A375 GP, 10μΜ” value in data set [2] (10μΜ, 72 h) was 65.7. In the data set with IGR37 cells (parental) (1μΜ, 72 h), the “cell viability, IGR37 Parental, 1μΜ” value is recorded as 99.9. For the same compound, in the data set on IGR37 cells (parental) (10μΜ, 72 h), the “cell viability, IGR37 Parental, 10μΜ” value stood at 92.4. The “cell viability, A375 XP, 1μΜ” value in data set [3] (1μΜ, 72 h) is reported as 100.2. In addition, the “cell viability, A375 XP, 10μΜ” value in [3] (10μΜ, 72 h) is 81.3. Further, the “cell viability, A375 Parental, 1μΜ” value with A375 cells (parental) (1μΜ, 72 h) was determined as 104.3. Moreover, in the data set on A375 cells (parental) (10μΜ, 72 h), the “cell viability, A375 Parental, 10μΜ” value is recorded as 78.2. The cell viability, IGR37 GP, 10μΜ in data set [4] (10μΜ, 72 h) is 73.5%. In addition, the “cell viability, IGR37 GP, 1μΜ” value in data set [4] (1μΜ, 72 h, in %) worked out at 85.7. Also, the cell viability, IGR37 XP, 10μΜ in data set [5] (10μΜ, 72 h) worked out at 49.7%. The “cell viability, IGR37 XP, 1μΜ” value in [5] (1μΜ, 72 h, in %) amounted to 80.3. The “cell viability, 501Mel Parental, 10μΜ” value in the data set with 501Mel cells (parental) (10μΜ, 72 h) is given as 82.4. Besides, the “cell viability, 501Mel GP, 1μΜ” value in [6] (1μΜ, 72 h) amounted to 107.4. Moreover, the “cell viability, 501Mel GP, 10μΜ” value in [6] (10μΜ, 72 h) was found to be 74.9.

Consider `COc1cc(Nc2ncc(F)c(Nc3ccc4c(n3)N(COP(=O)(O)O)C(=O)C(C)(C)O4)n2)cc(OC)c1OC` [R788 (Fostamatinib)], for which the “cell viability (kinase inhibitor library screening)” value came to 82.4 in data set [1] (1μΜ); 25.1 in [1] (10μΜ); 89.5 in data set [2] (1μΜ); 49.0 in [2] (10μΜ); 99.8 in the data set with IGR37 cells (parental) (1μΜ); 77.8 in the data set on IGR37 cells (parental) (10μΜ). For the same compound, the “cell viability (kinase inhibitor library screening)” value amounted to 93.7 in data set [3] (1μΜ); 63.9 in data set [3] (10μΜ); 95.5 with A375 cells (parental) (1μΜ); 47.5 in the data set with A375 cells (parental) (10μΜ); 87.5 in data set [4] (1μΜ, in %); 21.3 in data set [4] (10μΜ, in %). Moreover, the “cell viability (kinase inhibitor library screening)” value was determined as 89.9 in data set [5] (1μΜ, in %); 12.1 in data set [5] (10μΜ, in %); 98.5 in the data set with 501Mel cells (parental) (1μΜ); 76.6 in the data set with 501Mel cells (parental) (10μΜ); 90.2 in [6] (1μΜ); 61.2 in data set [6] (10μΜ).
